Reference: ChEMBL document CHEMBL5715260, “Selectivity Literature for EUbOPEN Chemogenomic Library” (2024)
Blank lines part the entries; values can stand above or below the compound they belong to.

Experiments:
[1] = target: Steroidogenic factor 1 (Homo sapiens) (UniProt Q13285); test: Selectivity interaction (Reporter gene assay) EUB0000582a NR5A1; set-up: recommended concentration 1 uM
[2] = target: Nuclear receptor subfamily 2 group E member 1 (Homo sapiens) (UniProt Q9Y466); test: Selectivity interaction (Reporter gene assay) EUB0000582a NR2E1; set-up: recommended concentration 1 uM
[3] = target: Nuclear receptor subfamily 4immunitygroup A member 1 (Homo sapiens) (UniProt P22736); test: Selectivity interaction (Reporter gene assay) EUB0000582a NR4A1; set-up: recommended concentration 1 uM
[4] = target: T1, Retinoic acid receptor RXR-alpha (Homo sapiens) (UniProt P19793); test: Selectivity interaction (Reporter gene assay) EUB0000582a RXRA; set-up: recommended concentration 1 uM; settings: reference bexarotene 1 uM, Selectivity number of off-targets 0.0, Selectivity number of targets 1.0, Source Knowledge inhouse
T1 sequence (whole entry): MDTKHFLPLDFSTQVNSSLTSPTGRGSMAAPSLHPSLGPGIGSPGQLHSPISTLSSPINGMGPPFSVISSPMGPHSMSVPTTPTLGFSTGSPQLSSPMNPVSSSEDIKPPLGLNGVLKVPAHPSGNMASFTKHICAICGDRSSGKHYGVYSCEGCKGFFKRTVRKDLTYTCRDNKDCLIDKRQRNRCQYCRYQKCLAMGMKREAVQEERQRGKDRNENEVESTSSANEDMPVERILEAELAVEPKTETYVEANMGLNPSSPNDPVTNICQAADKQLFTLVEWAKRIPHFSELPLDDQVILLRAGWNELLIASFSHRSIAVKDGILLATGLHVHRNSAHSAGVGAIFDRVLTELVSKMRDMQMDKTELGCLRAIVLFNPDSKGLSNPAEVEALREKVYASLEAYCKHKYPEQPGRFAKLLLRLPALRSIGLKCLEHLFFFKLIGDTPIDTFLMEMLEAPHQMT

[5] = target: T2, Alpha trans-inducing protein (Human alphaherpesvirus 1) (UniProt A0A5J6DW59); test: Selectivity interaction (Reporter gene assay) EUB0000582a UL48; set-up: recommended concentration 1 uM
[6] = target: T3, Nuclear receptor subfamily 2 group C member 1 (Homo sapiens) (UniProt P13056); test: Selectivity interaction (Reporter gene assay) EUB0000582a NR2C1; set-up: recommended concentration 1 uM
T3 sequence (whole entry): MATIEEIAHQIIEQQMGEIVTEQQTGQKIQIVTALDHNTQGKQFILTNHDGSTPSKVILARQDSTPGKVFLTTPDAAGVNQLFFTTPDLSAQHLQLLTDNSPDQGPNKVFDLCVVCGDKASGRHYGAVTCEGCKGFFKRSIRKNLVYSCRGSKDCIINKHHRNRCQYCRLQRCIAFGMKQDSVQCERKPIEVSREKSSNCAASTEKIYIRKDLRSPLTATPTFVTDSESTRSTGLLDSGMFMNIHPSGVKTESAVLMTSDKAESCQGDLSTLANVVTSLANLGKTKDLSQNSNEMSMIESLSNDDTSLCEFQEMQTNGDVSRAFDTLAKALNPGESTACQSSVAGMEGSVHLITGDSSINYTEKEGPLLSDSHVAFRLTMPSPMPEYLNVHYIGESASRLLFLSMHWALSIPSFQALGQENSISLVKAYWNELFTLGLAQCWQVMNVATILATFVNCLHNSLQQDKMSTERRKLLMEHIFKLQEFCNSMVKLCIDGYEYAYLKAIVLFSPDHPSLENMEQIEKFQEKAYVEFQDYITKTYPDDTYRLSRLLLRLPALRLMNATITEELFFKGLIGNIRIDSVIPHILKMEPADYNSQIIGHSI

[7] = target: T4, Hepatocyte nuclear factor 4-alpha (Homo sapiens) (UniProt P41235); test: Selectivity interaction (Reporter gene assay) EUB0000582a HNF4A; set-up: recommended concentration 1 uM
T4 sequence (whole entry): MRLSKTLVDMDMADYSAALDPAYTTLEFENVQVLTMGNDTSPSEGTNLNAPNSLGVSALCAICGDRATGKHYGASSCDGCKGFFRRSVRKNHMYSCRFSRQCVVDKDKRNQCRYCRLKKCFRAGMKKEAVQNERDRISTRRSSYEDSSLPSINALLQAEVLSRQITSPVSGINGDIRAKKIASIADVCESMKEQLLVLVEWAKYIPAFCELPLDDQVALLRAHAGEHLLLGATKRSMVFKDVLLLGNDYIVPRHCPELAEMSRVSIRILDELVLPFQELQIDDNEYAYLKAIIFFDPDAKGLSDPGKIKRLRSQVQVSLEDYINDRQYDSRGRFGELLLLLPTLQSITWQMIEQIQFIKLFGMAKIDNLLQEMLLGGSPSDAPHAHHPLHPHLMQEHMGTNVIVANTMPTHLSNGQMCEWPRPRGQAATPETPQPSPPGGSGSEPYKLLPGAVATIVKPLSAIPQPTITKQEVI

[8] = target: T4, Hepatocyte nuclear factor 4-alpha (Homo sapiens); test: Selectivity interaction (Reporter gene assay) EUB0001136a HNF4A; set-up: recommended concentration 1 uM
[9] = target: T3, Nuclear receptor subfamily 2 group C member 1 (Homo sapiens); test: Selectivity interaction (Reporter gene assay) EUB0001136a NR2C1; set-up: recommended concentration 1 uM
[10] = target: Nuclear receptor subfamily 4immunitygroup A member 1 (Homo sapiens) (UniProt P22736); test: Selectivity interaction (Reporter gene assay) EUB0001136a NR4A1; set-up: recommended concentration 1 uM
[11] = target: Nuclear receptor subfamily 2 group E member 1 (Homo sapiens) (UniProt Q9Y466); test: Selectivity interaction (Reporter gene assay) EUB0001136a NR2E1; set-up: recommended concentration 1 uM; settings: screened at recom. conc., Selectivity number of off-targets 2.0, Selectivity number of targets 5.0, Source Knowledge inhouse
[12] = target: Nuclear receptor ROR-gamma (Homo sapiens) (UniProt P51449); test: Selectivity interaction (Reporter gene assay) EUB0001136a RORC; set-up: recommended concentration 1 uM; settings: screened at recom. conc., Selectivity number of off-targets 3.0, Selectivity number of targets 19.0, Source Knowledge inhouse
[13] = target: Steroidogenic factor 1 (Homo sapiens) (UniProt Q13285); test: Selectivity interaction (Reporter gene assay) EUB0001136a NR5A1; set-up: recommended concentration 1 uM; settings: screened at recom. conc., Selectivity number of off-targets 2.0, Selectivity number of targets 5.0, Source Knowledge inhouse
[14] = target: T2, Alpha trans-inducing protein (Human alphaherpesvirus 1); test: Selectivity interaction (Reporter gene assay) EUB0001136a UL48; set-up: recommended concentration 1 uM
[15] = target: Nuclear receptor ROR-beta (Homo sapiens) (UniProt Q92753); test: Selectivity interaction (Reporter gene assay) EUB0001136a RORB; set-up: recommended concentration 1 uM; settings: screened at recom. conc., Selectivity number of off-targets 3.0, Selectivity number of targets 19.0, Source Knowledge inhouse
[16] = target: Nuclear receptor ROR-alpha (Homo sapiens) (UniProt P35398); test: Selectivity interaction (Reporter gene assay) EUB0001136a RORA; set-up: recommended concentration 1 uM; settings: screened at recom. conc., Selectivity number of off-targets 3.0, Selectivity number of targets 19.0, Source Knowledge inhouse
[17] = target: T4, Hepatocyte nuclear factor 4-alpha (Homo sapiens); test: Selectivity interaction (Reporter gene assay) EUB0001140a HNF4A; set-up: recommended concentration 1 uM
[18] = target: T2, Alpha trans-inducing protein (Human alphaherpesvirus 1); test: Selectivity interaction (Reporter gene assay) EUB0001140a UL48; set-up: recommended concentration 1 uM
[19] = target: T3, Nuclear receptor subfamily 2 group C member 1 (Homo sapiens); test: Selectivity interaction (Reporter gene assay) EUB0001140a NR2C1; set-up: recommended concentration 1 uM
[20] = target: Nuclear receptor subfamily 4immunitygroup A member 1 (Homo sapiens) (UniProt P22736); test: Selectivity interaction (Reporter gene assay) EUB0001140a NR4A1; set-up: recommended concentration 1 uM
[21] = target: Steroidogenic factor 1 (Homo sapiens) (UniProt Q13285); test: Selectivity interaction (Reporter gene assay) EUB0001140a NR5A1; set-up: recommended concentration 1 uM
[22] = target: Peroxisome proliferator-activated receptor delta (Homo sapiens) (UniProt Q03181); test: Selectivity interaction (Reporter gene assay) EUB0001140a PPARD; set-up: recommended concentration 1 uM; settings: screened at recom. conc., Selectivity number of off-targets 1.0, Selectivity number of targets 19.0, Source Knowledge inhouse
[23] = target: Nuclear receptor subfamily 2 group E member 1 (Homo sapiens) (UniProt Q9Y466); test: Selectivity interaction (Reporter gene assay) EUB0001140a NR2E1; set-up: recommended concentration 1 uM
[24] = target: T1, Retinoic acid receptor RXR-alpha (Homo sapiens); test: Selectivity interaction (Reporter gene assay) EUB0001140a RXRA; set-up: recommended concentration 1 uM
[25] = target: T4, Hepatocyte nuclear factor 4-alpha (Homo sapiens); test: Selectivity interaction (Reporter gene assay) EUB0001081a HNF4A; set-up: recommended concentration 10 uM
[26] = target: Nuclear receptor subfamily 2 group E member 1 (Homo sapiens) (UniProt Q9Y466); test: Selectivity interaction (Reporter gene assay) EUB0001081a NR2E1; set-up: recommended concentration 10 uM
[27] = target: T2, Alpha trans-inducing protein (Human alphaherpesvirus 1); test: Selectivity interaction (Reporter gene assay) EUB0001081a UL48; set-up: recommended concentration 10 uM
[28] = target: Steroidogenic factor 1 (Homo sapiens) (UniProt Q13285); test: Selectivity interaction (Reporter gene assay) EUB0001081a NR5A1; set-up: recommended concentration 10 uM
[29] = target: T3, Nuclear receptor subfamily 2 group C member 1 (Homo sapiens); test: Selectivity interaction (Reporter gene assay) EUB0001081a NR2C1; set-up: recommended concentration 10 uM
[30] = target: T1, Retinoic acid receptor RXR-alpha (Homo sapiens); test: Selectivity interaction (Reporter gene assay) EUB0001081a RXRA; set-up: recommended concentration 10 uM; settings: reference bexarotene 1 uM, Selectivity number of off-targets 0.0, Selectivity number of targets 1.0, Source Knowledge inhouse
[31] = target: Nuclear receptor subfamily 4immunitygroup A member 1 (Homo sapiens) (UniProt P22736); test: Selectivity interaction (Reporter gene assay) EUB0001081a NR4A1; set-up: recommended concentration 10 uM
[32] = target: T3, Nuclear receptor subfamily 2 group C member 1 (Homo sapiens); test: Selectivity interaction (Reporter gene assay) EUB0000835a NR2C1; set-up: recommended concentration 1 uM
[33] = target: T2, Alpha trans-inducing protein (Human alphaherpesvirus 1); test: Selectivity interaction (Reporter gene assay) EUB0000835a UL48; set-up: recommended concentration 1 uM
[34] = target: T4, Hepatocyte nuclear factor 4-alpha (Homo sapiens); test: Selectivity interaction (Reporter gene assay) EUB0000835a HNF4A; set-up: recommended concentration 1 uM
[35] = target: Nuclear receptor subfamily 2 group E member 1 (Homo sapiens) (UniProt Q9Y466); test: Selectivity interaction (Reporter gene assay) EUB0000835a NR2E1; set-up: recommended concentration 1 uM
[36] = target: Steroidogenic factor 1 (Homo sapiens) (UniProt Q13285); test: Selectivity interaction (Reporter gene assay) EUB0000835a NR5A1; set-up: recommended concentration 1 uM
[37] = target: T1, Retinoic acid receptor RXR-alpha (Homo sapiens); test: Selectivity interaction (Reporter gene assay) EUB0000835a RXRA; set-up: recommended concentration 1 uM; settings: screened at recom. conc., reference bexarotene 1 uM, Selectivity number of off-targets 1.0, Selectivity number of targets 1.0, Source Knowledge inhouse
[38] = target: Nuclear receptor subfamily 4immunitygroup A member 1 (Homo sapiens) (UniProt P22736); test: Selectivity interaction (Reporter gene assay) EUB0000835a NR4A1; set-up: recommended concentration 1 uM

Nuclear receptor subfamily 4immunitygroup A member 1 (Homo sapiens), sequence (P22736 whole entry): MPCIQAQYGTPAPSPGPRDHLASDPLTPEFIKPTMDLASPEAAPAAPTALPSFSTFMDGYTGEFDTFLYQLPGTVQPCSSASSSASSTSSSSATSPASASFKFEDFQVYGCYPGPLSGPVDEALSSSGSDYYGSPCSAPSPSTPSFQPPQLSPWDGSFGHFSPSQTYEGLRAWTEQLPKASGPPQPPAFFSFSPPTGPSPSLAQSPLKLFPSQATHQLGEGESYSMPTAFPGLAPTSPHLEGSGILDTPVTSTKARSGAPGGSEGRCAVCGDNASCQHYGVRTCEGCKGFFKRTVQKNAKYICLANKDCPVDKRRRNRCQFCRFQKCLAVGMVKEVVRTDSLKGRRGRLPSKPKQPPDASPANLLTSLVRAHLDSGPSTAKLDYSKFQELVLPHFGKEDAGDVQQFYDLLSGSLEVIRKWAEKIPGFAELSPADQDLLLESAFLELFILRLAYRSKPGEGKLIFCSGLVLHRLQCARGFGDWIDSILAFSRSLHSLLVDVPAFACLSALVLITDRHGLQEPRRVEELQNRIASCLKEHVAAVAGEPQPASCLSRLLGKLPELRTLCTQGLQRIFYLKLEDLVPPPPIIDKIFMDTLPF
Steroidogenic factor 1 (Homo sapiens), sequence (Q13285 whole entry): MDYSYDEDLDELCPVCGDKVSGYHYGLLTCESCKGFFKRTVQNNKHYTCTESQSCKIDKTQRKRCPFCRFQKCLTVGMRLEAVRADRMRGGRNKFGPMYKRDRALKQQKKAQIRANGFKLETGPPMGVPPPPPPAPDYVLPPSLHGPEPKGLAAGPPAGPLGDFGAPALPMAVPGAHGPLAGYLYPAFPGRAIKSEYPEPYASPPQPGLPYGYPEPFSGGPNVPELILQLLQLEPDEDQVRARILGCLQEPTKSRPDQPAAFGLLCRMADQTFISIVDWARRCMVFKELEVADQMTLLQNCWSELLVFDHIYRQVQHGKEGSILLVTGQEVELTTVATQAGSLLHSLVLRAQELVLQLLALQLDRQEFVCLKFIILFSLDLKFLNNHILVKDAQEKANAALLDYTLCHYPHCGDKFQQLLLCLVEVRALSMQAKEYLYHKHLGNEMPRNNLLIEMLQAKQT
Nuclear receptor subfamily 2 group E member 1 (Homo sapiens), sequence (Q9Y466 whole entry): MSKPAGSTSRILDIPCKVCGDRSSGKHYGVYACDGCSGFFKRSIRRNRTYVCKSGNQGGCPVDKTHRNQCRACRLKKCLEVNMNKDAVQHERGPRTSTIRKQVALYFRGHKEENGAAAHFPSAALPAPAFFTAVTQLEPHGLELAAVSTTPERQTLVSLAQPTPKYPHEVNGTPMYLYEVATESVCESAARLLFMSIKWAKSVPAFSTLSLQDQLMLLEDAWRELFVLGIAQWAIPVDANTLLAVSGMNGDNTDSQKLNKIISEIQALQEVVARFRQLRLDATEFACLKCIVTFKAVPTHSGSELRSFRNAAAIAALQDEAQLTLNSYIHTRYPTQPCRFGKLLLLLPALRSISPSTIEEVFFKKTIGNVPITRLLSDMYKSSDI
T2 sequence (A0A5J6DW59 as listed by the source): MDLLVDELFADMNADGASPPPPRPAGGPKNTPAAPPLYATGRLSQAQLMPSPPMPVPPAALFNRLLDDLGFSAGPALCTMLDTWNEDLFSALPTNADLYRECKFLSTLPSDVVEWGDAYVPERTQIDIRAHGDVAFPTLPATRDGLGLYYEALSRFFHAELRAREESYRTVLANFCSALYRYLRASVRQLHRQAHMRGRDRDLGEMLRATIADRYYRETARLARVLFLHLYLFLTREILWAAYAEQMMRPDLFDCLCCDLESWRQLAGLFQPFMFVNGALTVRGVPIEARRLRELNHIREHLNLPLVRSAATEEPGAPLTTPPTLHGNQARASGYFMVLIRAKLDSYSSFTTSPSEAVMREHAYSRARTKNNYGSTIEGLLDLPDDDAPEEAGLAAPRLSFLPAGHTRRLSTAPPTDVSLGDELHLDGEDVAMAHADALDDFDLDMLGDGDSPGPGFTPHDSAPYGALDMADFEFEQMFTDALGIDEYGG
Nuclear receptor ROR-gamma (Homo sapiens), sequence (P51449 whole entry): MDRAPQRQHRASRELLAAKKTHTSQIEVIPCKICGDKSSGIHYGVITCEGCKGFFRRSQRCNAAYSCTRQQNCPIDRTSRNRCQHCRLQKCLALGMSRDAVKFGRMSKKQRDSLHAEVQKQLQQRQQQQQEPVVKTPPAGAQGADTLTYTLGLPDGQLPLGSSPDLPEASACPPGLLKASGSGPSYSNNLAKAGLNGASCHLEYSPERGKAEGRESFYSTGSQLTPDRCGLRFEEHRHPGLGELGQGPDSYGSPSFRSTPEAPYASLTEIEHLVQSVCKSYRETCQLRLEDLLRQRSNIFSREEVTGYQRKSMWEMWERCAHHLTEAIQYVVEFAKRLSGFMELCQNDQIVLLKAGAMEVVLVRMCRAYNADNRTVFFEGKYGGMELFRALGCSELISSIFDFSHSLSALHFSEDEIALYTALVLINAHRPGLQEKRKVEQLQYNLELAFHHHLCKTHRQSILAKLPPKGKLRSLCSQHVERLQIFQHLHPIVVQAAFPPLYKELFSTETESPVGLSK
Peroxisome proliferator-activated receptor delta (Homo sapiens), sequence (Q03181 whole entry): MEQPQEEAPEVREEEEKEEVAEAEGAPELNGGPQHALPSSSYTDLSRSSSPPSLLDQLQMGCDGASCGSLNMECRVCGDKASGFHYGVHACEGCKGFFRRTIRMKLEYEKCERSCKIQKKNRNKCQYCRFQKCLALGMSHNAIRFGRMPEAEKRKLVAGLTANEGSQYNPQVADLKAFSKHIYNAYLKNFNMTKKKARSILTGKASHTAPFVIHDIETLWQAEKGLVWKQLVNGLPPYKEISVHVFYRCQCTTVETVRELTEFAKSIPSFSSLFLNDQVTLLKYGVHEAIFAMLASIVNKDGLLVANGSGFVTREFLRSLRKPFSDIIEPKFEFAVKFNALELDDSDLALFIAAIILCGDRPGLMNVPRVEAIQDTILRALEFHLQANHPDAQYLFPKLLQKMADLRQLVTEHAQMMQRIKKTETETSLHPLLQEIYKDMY
Nuclear receptor ROR-beta (Homo sapiens), sequence (Q92753 whole entry): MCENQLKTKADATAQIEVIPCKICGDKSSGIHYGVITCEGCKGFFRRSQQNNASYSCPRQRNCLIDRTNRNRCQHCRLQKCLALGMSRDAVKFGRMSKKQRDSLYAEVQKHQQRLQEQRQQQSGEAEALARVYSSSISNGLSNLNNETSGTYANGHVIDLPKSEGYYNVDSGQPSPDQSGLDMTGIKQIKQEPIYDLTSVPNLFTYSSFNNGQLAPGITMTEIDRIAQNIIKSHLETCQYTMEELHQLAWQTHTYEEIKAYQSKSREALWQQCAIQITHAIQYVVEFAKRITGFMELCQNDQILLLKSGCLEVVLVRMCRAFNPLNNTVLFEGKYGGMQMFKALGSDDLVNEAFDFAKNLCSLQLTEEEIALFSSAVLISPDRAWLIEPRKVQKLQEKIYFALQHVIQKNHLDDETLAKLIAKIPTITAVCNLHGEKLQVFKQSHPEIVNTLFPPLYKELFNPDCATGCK
Nuclear receptor ROR-alpha (Homo sapiens), sequence (P35398 whole entry): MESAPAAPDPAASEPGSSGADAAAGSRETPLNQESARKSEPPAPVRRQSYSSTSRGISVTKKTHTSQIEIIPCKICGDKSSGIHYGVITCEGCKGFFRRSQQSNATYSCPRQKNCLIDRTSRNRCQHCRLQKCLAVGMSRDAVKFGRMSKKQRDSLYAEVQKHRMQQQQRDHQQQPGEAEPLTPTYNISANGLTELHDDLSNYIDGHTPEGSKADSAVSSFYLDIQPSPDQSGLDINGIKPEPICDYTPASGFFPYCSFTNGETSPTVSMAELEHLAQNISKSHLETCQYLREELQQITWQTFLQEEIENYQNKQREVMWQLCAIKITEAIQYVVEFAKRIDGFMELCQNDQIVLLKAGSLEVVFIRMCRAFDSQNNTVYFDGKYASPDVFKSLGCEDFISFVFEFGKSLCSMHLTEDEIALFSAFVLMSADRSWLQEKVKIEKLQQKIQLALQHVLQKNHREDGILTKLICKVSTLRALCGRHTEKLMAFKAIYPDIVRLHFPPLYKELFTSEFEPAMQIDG

Structure (SMILES): C=C1/C(=C\C=C2/CCC[C@]3(C)[C@@H]([C@H](C)/C=C/C=C/C(O)(CC)CC)CC[C@@H]23)C[C@@H](O)C[C@@H]1O
Fold activation [1]: 1.27
Fold activation [2]: 0.996
Fold activation [3]: 1.19
Relative activation [4]: 0.643%
P-value [5]: 0.000219
Fold activation [6]: 1.62
Fold activation [7]: 1.08

Structure (SMILES): COc1ccc(OC(=O)N(CC(=O)O)Cc2ccc(OCCc3nc(-c4ccccc4)oc3C)cc2)cc1
Remaining activity [17]: 0.799
P-value [18]: 2.24e-06
Remaining activity [19]: 0.747
Fold activation [20]: 1.19
Remaining activity [21]: 0.916
Fold activation [22]: 6.61
Remaining activity [23]: 0.91
Relative activation [24]: 0.862%

Continued, values first:

Remaining activity [8]: 0.532
Remaining activity [9]: 0.503
Remaining activity [10]: 0.986
Remaining activity [11]: 0.42
Remaining activity [12]: 0.461
Remaining activity [13]: 0.42
P-value [14]: 0.000127
Remaining activity [15]: 0.531
Remaining activity [16]: 0.56
Structure (SMILES): CC(C=CC1=C(C)CCCC1(C)C)=CC=CC(C)=CC(=O)O

Remaining activity [25]: 0.559
Remaining activity [26]: 0.788
P-value [27]: 0.0087
Remaining activity [28]: 0.559
Remaining activity [29]: 0.569
Relative activation [30]: 1.67%
Remaining activity [31]: 0.741
Structure (SMILES): CC(C)c1cc(Oc2c(Cl)cc(-n3nc(C#N)c(=O)[nH]c3=O)cc2Cl)n[nH]c1=O

Remaining activity [32]: 0.83
P-value [33]: 0.00302
Fold activation [34]: 1.09
Remaining activity [35]: 0.746
Remaining activity [36]: 0.758
Relative activation [37]: 19.4%
Remaining activity [38]: 0.964
Structure (SMILES): C[C@H]1[C@H]2CC[C@H]3[C@@H]4CC=C5C[C@@H](N(C)C)CC[C@]5(C)[C@H]4CC[C@]23CN1C
